Results taken from patent publication US20230066011A1, “PYRROLOPYRIMIDINE DERIVATIVE, AND PHARMACEUTICAL COMPOSITION FOR PREVENTING OR TREATING PROTEIN KINASE-RELATED DISEASE COMPRISING SAME AS ACTIVE INGREDIENT” (VORONOI CO., LTD., priority 2019, published 2023).

Assays:
MDA-MB-231 cell line = assay: Inhibition of proliferation of MDA-MB-231 cancer cells (Cell Titer-Glo); assay type: cell-based; details: Homo sapiens, 72 hours
Description: (§1) To evaluate an inhibitory effect on the proliferation of cancer cells, each of an MDA-MB-231 cell line (Korean Cell Line Bank #30026) and an MDA-MB-468 cell line as triple-negative breast cancer cell lines, and SHP-77 (ATCC #CRL-2195) as a small-cell lung cancer cell line was cultured in DMEM (HyClone #SH30243) or an RPMI medium (HyClone #SH3027.01) to analyze a cell growth rate. More specifically, a cell line was plated on a 96-well flat bottom plate (Corning #3903) at a density of 2,000 cells/100 μL per well, and then treated with 11 concentrations of the Example compound, a solution of which was diluted 3-fold so that a final concentration of the compound was 10.000000, 3.333333, 1.111111, 0.370370, 0.123457, 0.041152, 0.013717, 0.004572, 0.001524, 0.000508, and 0.000169 μM. After 72 hours, each of the culture media was treated with 100 μL of Cell Titer-Glo (Promega G7573), and then cultured at room temperature for 10 minutes. Then, a degree of luminescence was measured using a microplate reader. A GI50 value was calculated from the measured degree of luminescence using Prism (Version 8.2 GraphPad) software.

MDA-MB-468 cell line = assay: Inhibition of proliferation of MDA-MB-468 cancer cells (Cell Titer-Glo); assay type: cell-based; details: Homo sapiens, MDA-MB-468, 72 hours
Description: as §1

human GST-DYRK1A = biological target: T1, human GST-DYRK1A (Homo sapiens, UniProt Q13627); assay: GST-DYRK1A enzyme inhibition, ADP-Glo kinase assay; assay type: biochemical; details: ATP 10 μM, GST-DYRK1A full length, read-out: DYRK1 IC50
T1 construct: purified human GST-DYRK1A (full length, Thermo Scientifics) enzyme; purchased Thermo Scientifics
How it was run: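 Full-length enzyme (10 ng) was incubated with 10 μM ATP and a specific substrate for 1 h at 25 °C in 40 mM Tris-HCl pH 7.4, 20 mM MgCl2, 0.5 mg/mL BSA, 50 μM DTT. Luminescence was read against a solvent control, and IC50 values were derived from 3 data sets.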

LRRK2 = LRRK2 (Homo sapiens, UniProt Q5S007); assay: LRRK2 enzyme inhibition, ADP-Glo kinase assay; assay type: biochemical; set-up: purchased Invitrogen PR8604B; details: ATP 10 μM
How it was run: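 ADP-Glo luminescent read-out of ADP formed by purified human LRRK2 enzyme (25 ng), 10 μM ATP, 0.2 μg substrate, 25° C for 2 h, Tris-HCl pH 7.4 buffer with MgCl2, BSA, DTT. Inhibition versus untreated solvent control over twelve final concentrations (50 μM downward) gives IC50.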

human GST-CLK1 = biological target: T2, human GST-CLK1 (Homo sapiens, UniProt P49759); assay: GST-CLK1 enzyme inhibition, ADP-Glo kinase assay; assay type: biochemical; details: ATP 10 μM, GST-CLK1 129-end
T2 construct: purified human GST-CLK1 (129-end, SignalChem) enzyme; purchased SignalChem
How it was run: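 ADP-Glo luminescence read-out, relative to untreated solvent control, gave IC50 (nM) from triplicate data sets. Reactions ran an hour at 25° C with 3 ng GST-CLK1 (residues 129-end), 10 μM ATP and specific substrate in Tris-HCl pH 7.4 buffer with MgCl2, BSA and DTT.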

LRRK2 (G2019S) = LRRK2 (G2019S) (Homo sapiens, UniProt Q5S007, G2019S); assay: LRRK2 G2019S enzyme inhibition, ADP-Glo kinase assay; assay type: biochemical; set-up: purchased SignalChem L10-12GG; details: ATP 25 μM
How it was run: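 IC50 derived from luminescent ADP-Glo readout against untreated solvent control, twelve final compound concentrations from 50 μM downward. Reaction: recombinant human LRRK2 G2019S enzyme, 25 μM ATP, substrate, pH 7.4 Tris buffer with MgCl2/BSA/DTT, 25° C. for 2 hours.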

Chain of LRRK2 (G2019S) (Q5S007 970-2527 G2019S limits assumed): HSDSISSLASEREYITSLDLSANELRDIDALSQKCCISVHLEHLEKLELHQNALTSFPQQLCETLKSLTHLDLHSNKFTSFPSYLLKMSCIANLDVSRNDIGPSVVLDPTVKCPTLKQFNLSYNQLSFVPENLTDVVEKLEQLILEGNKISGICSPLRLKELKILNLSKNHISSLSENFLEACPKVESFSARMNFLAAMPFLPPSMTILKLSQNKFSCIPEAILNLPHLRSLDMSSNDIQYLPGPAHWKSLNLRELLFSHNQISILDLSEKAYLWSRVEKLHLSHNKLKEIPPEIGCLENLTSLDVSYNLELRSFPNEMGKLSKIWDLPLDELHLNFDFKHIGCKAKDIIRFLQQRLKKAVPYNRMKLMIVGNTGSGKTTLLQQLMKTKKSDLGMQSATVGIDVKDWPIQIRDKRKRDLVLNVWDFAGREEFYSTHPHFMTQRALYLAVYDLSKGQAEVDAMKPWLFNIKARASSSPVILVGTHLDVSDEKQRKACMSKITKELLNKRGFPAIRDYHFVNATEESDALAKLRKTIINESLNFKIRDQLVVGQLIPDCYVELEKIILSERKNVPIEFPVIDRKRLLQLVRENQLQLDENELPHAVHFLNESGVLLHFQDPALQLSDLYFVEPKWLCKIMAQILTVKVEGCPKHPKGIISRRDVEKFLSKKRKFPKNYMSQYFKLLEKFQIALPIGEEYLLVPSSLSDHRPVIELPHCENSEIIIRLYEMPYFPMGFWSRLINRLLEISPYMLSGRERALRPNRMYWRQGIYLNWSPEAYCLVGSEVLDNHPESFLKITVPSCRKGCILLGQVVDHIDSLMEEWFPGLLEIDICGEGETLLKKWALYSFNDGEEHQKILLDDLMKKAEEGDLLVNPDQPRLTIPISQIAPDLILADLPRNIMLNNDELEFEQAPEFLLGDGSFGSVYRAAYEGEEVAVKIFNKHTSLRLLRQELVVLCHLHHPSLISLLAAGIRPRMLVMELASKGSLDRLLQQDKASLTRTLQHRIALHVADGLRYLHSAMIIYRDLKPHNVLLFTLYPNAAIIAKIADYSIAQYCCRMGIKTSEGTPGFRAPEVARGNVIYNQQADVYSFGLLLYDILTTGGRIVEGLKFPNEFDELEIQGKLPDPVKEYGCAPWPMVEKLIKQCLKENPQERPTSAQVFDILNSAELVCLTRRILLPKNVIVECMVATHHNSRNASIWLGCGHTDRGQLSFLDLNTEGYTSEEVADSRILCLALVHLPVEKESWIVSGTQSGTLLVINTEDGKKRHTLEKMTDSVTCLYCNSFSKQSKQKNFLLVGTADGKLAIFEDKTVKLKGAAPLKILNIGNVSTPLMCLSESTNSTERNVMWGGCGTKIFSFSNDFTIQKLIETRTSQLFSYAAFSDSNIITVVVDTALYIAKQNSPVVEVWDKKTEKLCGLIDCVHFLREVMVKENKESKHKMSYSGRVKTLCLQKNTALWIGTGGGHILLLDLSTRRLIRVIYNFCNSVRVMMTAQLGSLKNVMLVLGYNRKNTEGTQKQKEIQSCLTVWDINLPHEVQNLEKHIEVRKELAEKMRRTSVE
Chain of LRRK2 (Q5S007 970-2527 limits assumed): as the sequence (Q5S007 970-2527 G2019S limits assumed) above, with S1050G counted along it
T2 sequence (P49759 129-484 limits assumed): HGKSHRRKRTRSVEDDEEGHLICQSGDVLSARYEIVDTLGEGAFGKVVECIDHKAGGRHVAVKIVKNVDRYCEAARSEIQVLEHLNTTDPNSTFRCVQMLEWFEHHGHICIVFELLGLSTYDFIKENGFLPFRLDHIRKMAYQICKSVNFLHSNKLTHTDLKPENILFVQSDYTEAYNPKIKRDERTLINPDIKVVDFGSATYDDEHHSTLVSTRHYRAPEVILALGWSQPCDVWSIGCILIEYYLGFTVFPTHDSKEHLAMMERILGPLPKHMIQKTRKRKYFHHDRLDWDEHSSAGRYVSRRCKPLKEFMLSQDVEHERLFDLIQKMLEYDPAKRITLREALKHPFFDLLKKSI

SMILES: CCNc1nc(Nc2ccc(S(=O)(=O)N3CCC(N4CCOCC4)CC3)c3c2OCC3)nc2[nH]cc(C(F)(F)F)c12 [Example 467, N^4-ethyl-N^2-(4-((4-morpholino-piperidin-1-yl)sulfonyl)-2,3-dihydrobenzo-furan-7-yl)-5-(trifluoromethyl)-7H-pyrrolo[2,3-d]pyrimidine-2,4-diamine]
- GI50 (MDA-MB-231 cell line): 51 to 100 nM
- GI50 (MDA-MB-468 cell line): 101 to 300 nM
- IC50 (human GST-DYRK1A): 0.301 to 1 µM
- IC50 (LRRK2): < 0.1 µM
- IC50 (human GST-CLK1): 0.301 to 1 µM

SMILES: COc1cc(P(C)(C)=O)ccc1Nc1nc(NC2CCCCC2)c2c(C#N)c[nH]c2n1 [Example 117, 4-(cyclohexylamino)-2-((4-(dimethylphosphoryl)-2-methoxyphenyl)amino)-7H-pyrrolo[2,3-d]pyrimidine-5-carbonitrile]
- GI50 (MDA-MB-231 cell line): < 50 nM
- GI50 (MDA-MB-468 cell line): < 50 nM
- IC50 (human GST-CLK1): 0.301 to 1 µM

SMILES: COc1cc(P2(=O)CCN(C3CCOCC3)CC2)ccc1Nc1nc(NC2CCCC2)c2cc[nH]c2n1 [Example 243, 4-(4-((4-(cyclopentylamino)-7H-pyrrolo[2,3-d]pyrimidin-2-yl)amino)-3-methoxyphenyl)-1-(tetrahydro-2H-pyran-4-yl)-1,4-azaphosphinane 4-oxide]
- GI50 (MDA-MB-468 cell line): 301 to 1000 nM
- IC50 (human GST-DYRK1A): 0.301 to 1 µM
- IC50 (human GST-CLK1): 0.301 to 1 µM

SMILES: COCCNc1nc(Nc2ccc(P3(=O)CCN(C4CC4)CC3)cc2OC)nc2[nH]cc(C(F)(F)F)c12 [Example 412, 1-cyclopropyl-4-(3-methoxy-4-((4-((2-methoxyethyl)amino)-5-(trifluoromethyl)-7H-pyrrolo[2,3-d]pyrimidin-2-yl)amino)phenyl)-1,4-azaphosphinane 4-oxide]
- GI50 (MDA-MB-468 cell line): 301 to 1000 nM
- IC50 (human GST-DYRK1A): < 0.1 µM
- IC50 (LRRK2): < 0.1 µM
- IC50 (human GST-CLK1): < 0.1 µM

SMILES: COCC(C)(C)Nc1nc(Nc2ccc(S(=O)(=O)N3CCC(N4CCOCC4)CC3)cc2OC)nc2[nH]cc(C(F)(F)F)c12 [Example 176, N^4-(1-methoxy-2-methylpropan-2-yl)-N^2-(2-methoxy-4-((4-morpholinopiperidin-1-yl)sulfonyl)phenyl)-5-(trifluoromethyl)-7H-pyrrolo[2,3-d]pyrimidine-2,4-diamine]
- GI50 (MDA-MB-231 cell line): 101 to 300 nM
- IC50 (human GST-DYRK1A): 0.301 to 1 µM
- IC50 (LRRK2): 0.301 to 1 µM
- IC50 (human GST-CLK1): 0.301 to 1 µM
- IC50 (LRRK2 (G2019S)): 0.301 to 1 µM

SMILES: COc1cc(S(=O)(=O)N2CCOCC2)ccc1Nc1nc(N[C@H]2CCOC2)c2c(C(F)(F)F)c[nH]c2n1 [Example 383, (S)-N^2-(2-methoxy-4-(morpholino-sulfonyl)phenyl)-N^4-(tetrahydrofuran-3-yl)-5-(trifluoromethyl)-7H-pyrrolo[2,3-d]pyrimidine-2,4-diamine]
- GI50 (MDA-MB-231 cell line): 101 to 300 nM
- GI50 (MDA-MB-468 cell line): 301 to 1000 nM
- IC50 (human GST-DYRK1A): 0.301 to 1 µM
- IC50 (human GST-CLK1): 0.301 to 1 µM
- IC50 (LRRK2 (G2019S)): < 0.1 µM

SMILES: N#Cc1c[nH]c2nc(Nc3ccc(C(=O)N4CCOCC4)c4c3OCC4)nc(NC3CCCC3)c12 [Example 319, 4-(cyclo-pentylamino)-2-((4-(morpholine-4-carbonyl)-2,3-dihydrobenzo-furan-7-yl)amino)-7H-pyrrolo[2,3-d]pyrimidine-5-carbonitrile]
- GI50 (MDA-MB-468 cell line): < 50 nM
- IC50 (human GST-DYRK1A): 0.301 to 1 µM
- IC50 (LRRK2): < 0.1 µM
- IC50 (human GST-CLK1): < 0.1 µM

SMILES: COc1cc(P2(=O)CCN(C3CC3)CC2)ccc1Nc1nc(NC2CCCC2)c2cc[nH]c2n1 [Example 242, 4-(4-((4-(cyclopentylamino)-7H-pyrrolo[2,3-d]pyrimidin-2-yl)amino)-3-methoxyphenyl)-1-cyclopropyl-1,4-azaphosphinane 4-oxide]
- GI50 (MDA-MB-468 cell line): 301 to 1000 nM
- IC50 (human GST-DYRK1A): 0.301 to 1 µM
- IC50 (human GST-CLK1): 0.301 to 1 µM

SMILES: O=C(c1ccc(Nc2nc(NC3CCCCC3)c3cc[nH]c3n2)c2c1CCO2)N1CCOCC1 [Example 244, (7-((4-(cyclohexylamino)-7H-pyrrolo[2,3-d]pyrimidin-2-yl)amino)-2,3-dihydrobenzofuran-4-yl)(morpholino)methanone]
- GI50 (MDA-MB-468 cell line): < 50 nM
- IC50 (human GST-DYRK1A): 0.301 to 1 µM
- IC50 (LRRK2): < 0.1 µM
- IC50 (human GST-CLK1): 0.301 to 1 µM

SMILES: COc1cc(S(=O)(=O)N2CCOCC2)ccc1Nc1nc(NC(C)C)c2c(C#N)c[nH]c2n1 [Example 250, 4-(isopropylamino)-2-((2-methoxy-4-(morpholinosulfonyl)phenyl)amino)-7H-pyrrolo[2,3-d]pyrimidine-5-carbonitrile]
- GI50 (MDA-MB-468 cell line): < 50 nM
- IC50 (human GST-DYRK1A): 0.301 to 1 µM
- IC50 (LRRK2): < 0.1 µM
- IC50 (human GST-CLK1): 0.301 to 1 µM

SMILES: N#Cc1c[nH]c2nc(Nc3ccc(C(=O)N4CCOCC4)c4c3OCC4)nc(NC3CCCCC3)c12 [Example 321, 4-(cyclo-hexylamino)-2-((4-(morpholine-4-carbonyl)-2,3-dihydrobenzo-furan-7-yl)amino)-7H-pyrrolo[2,3-d]pyrimidine-5-carbonitrile]
- GI50 (MDA-MB-468 cell line): < 50 nM
- IC50 (human GST-DYRK1A): 0.301 to 1 µM
- IC50 (LRRK2): 0.101 to 0.3 µM
- IC50 (human GST-CLK1): 0.101 to 0.3 µM

SMILES: CC[C@H](C)Nc1nc(Nc2ccc(S(=O)(=O)N3CCC(N4CCOCC4)CC3)cc2OC)nc2[nH]cc(C#N)c12 [Example 263, (S)-4-(sec-butylamino)-2-((2-methoxy-4-((4-morpholinopiperidin-1-yl)sulfonyl)phenyl)amino)-7H-pyrrolo[2,3-d]pyrimidine-5-carbonitrile]
- GI50 (MDA-MB-231 cell line): < 50 nM
- GI50 (MDA-MB-468 cell line): 51 to 100 nM
- IC50 (human GST-DYRK1A): 0.301 to 1 µM
- IC50 (human GST-CLK1): 0.301 to 1 µM

SMILES: N#Cc1c[nH]c2nc(Nc3ccc(C(=O)N4CCC(N5CCOCC5)CC4)c4c3OCC4)nc(NC3CCCC3)c12 [Example 320, 4-(cyclo-pentylamino)-2-((4-(4-morpholino-piperidine-1-carbonyl)-2,3-dihydro-benzofuran-7-yl)amino)-7H-pyrrolo[2,3-d]pyrimidine-5-carbonitrile]
- GI50 (MDA-MB-468 cell line): 301 to 1000 nM
- IC50 (human GST-DYRK1A): < 0.1 µM
- IC50 (human GST-CLK1): < 0.1 µM

SMILES: COc1cc(S(=O)(=O)N2CCC(N3CCOCC3)CC2)ccc1Nc1nc(NC(C)C)c2c(C#N)c[nH]c2n1 [Example 85, 4-(isopropylamino)-2-((2-methoxy-4-((4-morpholinopiperidin-1-yl)sulfonyl)phenyl)amino)-7H-pyrrolo[2,3-d]pyrimidine-5-carbonitrile]
- GI50 (MDA-MB-231 cell line): < 50 nM
- GI50 (MDA-MB-468 cell line): < 50 nM
- IC50 (human GST-DYRK1A): 0.301 to 1 µM
- IC50 (human GST-CLK1): 0.101 to 0.3 µM
- IC50 (LRRK2 (G2019S)): < 0.1 µM

SMILES: O=C(c1ccc(Nc2nc(NC3CCCCC3)c3cc[nH]c3n2)c2c1CCO2)N1CCC(N2CCOCC2)CC1 [Example 245, (7-((4-(cyclohexylamino)-7H-pyrrolo[2,3-d]pyrimidin-2-yl)amino)-2,3-dihydrobenzofuran-4-yl)(4-morpholinopiperidin-1-yl)methanone]
- GI50 (MDA-MB-468 cell line): 51 to 100 nM
- IC50 (human GST-DYRK1A): 0.301 to 1 µM
- IC50 (human GST-CLK1): 0.301 to 1 µM

SMILES: O=C(c1ccc(Nc2nc(NC3CCCC3)c3cc[nH]c3n2)c2c1CCO2)N1CCC(N2CCOCC2)CC1 [Example 241, (7-((4-(cyclopentylamino)-7H-pyrrolo[2,3-d]pyrimidin-2-yl)amino)-2,3-dihydrobenzofuran-4-yl)(4-morpholinopiperidin-1-yl)methanone]
- GI50 (MDA-MB-468 cell line): 301 to 1000 nM
- IC50 (human GST-DYRK1A): 0.301 to 1 µM
- IC50 (human GST-CLK1): 0.301 to 1 µM

SMILES: COc1cc(S(=O)(=O)N2CCOCC2)ccc1Nc1nc(N[C@@H]2CCOC2)c2c(C(F)(F)F)c[nH]c2n1 [Example 382, (R)-N^2-(2-methoxy-4-(morpholino-sulfonyl)phenyl)-N^4-(tetrahydrofuran-3-yl)-5-(trifluoromethyl)-7H-pyrrolo[2,3-d]pyrimidine-2,4-diamine]
- GI50 (MDA-MB-231 cell line): 101 to 300 nM
- GI50 (MDA-MB-468 cell line): 301 to 1000 nM
- IC50 (human GST-DYRK1A): 0.301 to 1 µM
- IC50 (human GST-CLK1): 0.301 to 1 µM
- IC50 (LRRK2 (G2019S)): < 0.1 µM
